# According to publication PMC5218480 (PLoS ONE, 2017):
# Test system: MV-4-11 cells
# Test: Gene expression microarray analysis (Affymetrix PrimeView) and GSEA
# Format: cell-based, human
# Parameters: RFU PODN (11730768_x_at) / Fold change /veh PODN (11730768_x_at) / RFU LINC00158 (11744669_a_at) / Fold change /veh LINC00158 (11744669_a_at) / RFU DUSP10 (11751237_a_at) / Fold change /veh DUSP10 (11751237_a_at) / RFU ID3 (11757404_x_at) / Fold change /veh ID3 (11757404_x_at) / RFU PLEKHG5 (11737974_s_at) / Fold change /veh PLEKHG5 (11737974_s_at) / RFU LRRC4B (11730491_at) / Fold change /veh LRRC4B (11730491_at) / RFU GIMAP4 (11747438_a_at) / Fold change /veh GIMAP4 (11747438_a_at) / RFU KRT8 (11758183_x_at) / Fold change /veh KRT8 (11758183_x_at) / RFU CNN1 (11734310_a_at) / Fold change /veh CNN1 (11734310_a_at) / RFU VPS37D (11726825_at) / Fold change /veh VPS37D (11726825_at) / RFU C10orf10 (11716522_x_at) / Fold change /veh C10orf10 (11716522_x_at) / RFU KIR2DL2 /// KIR2DL4 /// KIR2DL5A /// KIR2DL5B /// KIR2DS1 /// KIR2DS2 /// KIR2DS3 /// KIR2DS4 /// KIR3DL3 /// KIR3DL3 /// KIR3DS1 (11738374_at) / Fold change /veh KIR2DL2 /// KIR2DL4 /// KIR2DL5A /// KIR2DL5B /// KIR2DS1 /// KIR2DS2 /// KIR2DS3 /// KIR2DS4 /// KIR3DL3 /// KIR3DL3 /// KIR3DS1 (11738374_at) / RFU C1QL1 (11718748_at) / Fold change /veh C1QL1 (11718748_at) / RFU TMPRSS4 (11747572_a_at) / Fold change /veh TMPRSS4 (11747572_a_at) / RFU HAMP (11756126_x_at) / Fold change /veh HAMP (11756126_x_at) / RFU RNFT2 (11725882_a_at) / Fold change /veh RNFT2 (11725882_a_at) / RFU NR4A2 (11747474_a_at) / Fold change /veh NR4A2 (11747474_a_at) / RFU ABCC12 (11746883_a_at) / Fold change /veh ABCC12 (11746883_a_at) / RFU TMEM136 (11760407_x_at) / Fold change /veh TMEM136 (11760407_x_at) / RFU CLDN22 /// WWC2 (11732394_at) / Fold change /veh CLDN22 /// WWC2 (11732394_at) / RFU HLA-DPB1 (11760878_x_at) / Fold change /veh HLA-DPB1 (11760878_x_at) / RFU SPINT1 (11716480_a_at) / Fold change /veh SPINT1 (11716480_a_at) / RFU GAP43 (11754022_s_at) / Fold change /veh GAP43 (11754022_s_at) / RFU A4GNT (11735810_at) / Fold change /veh A4GNT (11735810_at) / RFU PRB3 (11715151_x_at) / Fold change /veh PRB3 (11715151_x_at) / RFU TUBB4B (11761932_at) / Fold change /veh TUBB4B (11761932_at) / RFU CAPN14 (11732068_a_at) / Fold change /veh CAPN14 (11732068_a_at) / RFU TMCC2 (11721928_a_at) / Fold change /veh TMCC2 (11721928_a_at) / RFU IRGQ (11745062_a_at) / Fold change /veh IRGQ (11745062_a_at) / RFU FAM174B (11720279_a_at) / Fold change /veh FAM174B (11720279_a_at) / RFU TMPRSS4 (11748680_a_at) / Fold change /veh TMPRSS4 (11748680_a_at) / RFU FAM212B (11763350_a_at) / Fold change /veh FAM212B (11763350_a_at) / RFU PLEKHG5 (11743358_a_at) / Fold change /veh PLEKHG5 (11743358_a_at) / RFU ZSCAN30 (11745921_a_at) / Fold change /veh ZSCAN30 (11745921_a_at) / RFU CMKLR1 (11741424_a_at) / Fold change /veh CMKLR1 (11741424_a_at) / RFU LOC101060620 /// MAPK8IP1 (11723275_at) / Fold change /veh LOC101060620 /// MAPK8IP1 (11723275_at) / RFU SPTSSB (11747773_x_at) / Fold change /veh SPTSSB (11747773_x_at) / RFU PRSS12 (11739890_at) / Fold change /veh PRSS12 (11739890_at) / RFU BIN1 (11741810_x_at) / Fold change /veh BIN1 (11741810_x_at) / RFU WNT11 (11732464_a_at) / Fold change /veh WNT11 (11732464_a_at) / RFU C10orf10 (11716521_a_at) / Fold change /veh C10orf10 (11716521_a_at) / RFU C5orf56 (11738089_at) / Fold change /veh C5orf56 (11738089_at) / RFU CYB561 (11721691_x_at) / Fold change /veh CYB561 (11721691_x_at) / RFU ANKRD19P (11752326_a_at) / Fold change /veh ANKRD19P (11752326_a_at) / RFU OR2T12 /// OR2T33 /// OR2T8 (11738714_s_at) / Fold change /veh OR2T12 /// OR2T33 /// OR2T8 (11738714_s_at) / RFU VCAN (11748164_a_at) / Fold change /veh VCAN (11748164_a_at) / RFU JSRP1 (11732532_at) / Fold change /veh JSRP1 (11732532_at) / RFU KRTAP10-11 (11738290_x_at) / Fold change /veh KRTAP10-11 (11738290_x_at) / RFU MYO3A (11730013_a_at) / Fold change /veh MYO3A (11730013_a_at) / RFU EBF3 (11725865_a_at) / Fold change /veh EBF3 (11725865_a_at) / RFU CAMK2N1 (11719241_x_at) / Fold change /veh CAMK2N1 (11719241_x_at) / RFU C5orf56 (11738088_a_at) / Fold change /veh C5orf56 (11738088_a_at) / RFU OLFML3 (11715873_a_at) / Fold change /veh OLFML3 (11715873_a_at) / RFU LOC100653217 /// NTM (11731650_a_at) / Fold change /veh LOC100653217 /// NTM (11731650_a_at) / RFU MAPK11 (11762145_a_at) / Fold change /veh MAPK11 (11762145_a_at) / RFU FIZ1 (11724087_x_at) / Fold change /veh FIZ1 (11724087_x_at) / RFU OASL (11726364_x_at) / Fold change /veh OASL (11726364_x_at) / RFU SOX15 (11748057_x_at) / Fold change /veh SOX15 (11748057_x_at) / RFU CD79A (11719716_a_at) / Fold change /veh CD79A (11719716_a_at) / RFU HIST1H1D (11736915_at) / Fold change /veh HIST1H1D (11736915_at) / RFU CASKIN2 (11723855_a_at) / Fold change /veh CASKIN2 (11723855_a_at) / RFU LOC730098 (11760151_x_at) / Fold change /veh LOC730098 (11760151_x_at) / RFU OR4N2 (11742367_at) / Fold change /veh OR4N2 (11742367_at) / RFU PRRT2 (11749266_a_at) / Fold change /veh PRRT2 (11749266_a_at) / RFU SNX32 (11753110_a_at) / Fold change /veh SNX32 (11753110_a_at) / RFU CDHR5 (11726645_a_at) / Fold change /veh CDHR5 (11726645_a_at) / RFU RCAN1 (11760418_a_at) / Fold change /veh RCAN1 (11760418_a_at) / RFU FAM167A (11723789_a_at) / Fold change /veh FAM167A (11723789_a_at) / RFU FAM26E (11764081_at) / Fold change /veh FAM26E (11764081_at) / RFU ISYNA1 (11749810_s_at) / Fold change /veh ISYNA1 (11749810_s_at) / RFU ACY1 (11761880_at) / Fold change /veh ACY1 (11761880_at) / RFU 11764098_at / Fold change /veh 11764098_at / RFU SAMD14 (11745864_x_at) / Fold change /veh SAMD14 (11745864_x_at) / RFU NPB (11741838_a_at) / Fold change /veh NPB (11741838_a_at) / RFU TMPRSS6 (11731388_a_at) / Fold change /veh TMPRSS6 (11731388_a_at) / RFU KRTAP10-2 (11738614_at) / Fold change /veh KRTAP10-2 (11738614_at) / RFU ARHGAP8 /// PRR5-ARHGAP8 (11727945_x_at) / Fold change /veh ARHGAP8 /// PRR5-ARHGAP8 (11727945_x_at) / RFU KRTAP5-7 /// NADSYN1 (11734609_at) / Fold change /veh KRTAP5-7 /// NADSYN1 (11734609_at) / RFU RASL12 (11751679_a_at) / Fold change /veh RASL12 (11751679_a_at) / RFU CDKN2B (11736163_a_at) / Fold change /veh CDKN2B (11736163_a_at) / RFU PRF1 (11729649_at) / Fold change /veh PRF1 (11729649_at) / RFU, ZNF638 /// ZNF638-IT1 / Fold change vs veh, ZNF638 /// ZNF638-IT1 / RFU, PANK3 / Fold change vs veh, PANK3 / RFU, SH3YL1 / Fold change vs veh, SH3YL1 / RFU, ZEB2 / Fold change vs veh, ZEB2 / RFU, NRIP1 / Fold change vs veh, NRIP1 / RFU, PTTG1IP / Fold change vs veh, PTTG1IP / RFU, CAPN2 / Fold change vs veh, CAPN2 / RFU, MED14 / Fold change vs veh, MED14 / RFU, SNORA58 / Fold change vs veh, SNORA58 / RFU, C1orf63 / Fold change vs veh, C1orf63 / RFU, LRRFIP1 / Fold change vs veh, LRRFIP1 / RFU, NDUFAF7 / Fold change vs veh, NDUFAF7 / RFU, SLC12A2 / Fold change vs veh, SLC12A2 / RFU, IBTK / Fold change vs veh, IBTK / RFU, ESF1 / Fold change vs veh, ESF1 / Fold change vs veh, TMEM50B / RFU, TAOK1 / Fold change vs veh, TAOK1 / RFU, ACBD3 / Fold change vs veh, ACBD3 / RFU, TMA16 / Fold change vs veh, TMA16 / RFU, RWDD3 / Fold change vs veh, RWDD3 / RFU, BCAT1 / Fold change vs veh, BCAT1 / RFU, EDEM3 / Fold change vs veh, EDEM3 / RFU, TMEM33 / Fold change vs veh, TMEM33 / RFU, WDR75 / Fold change vs veh, WDR75 / RFU, AHCTF1 / Fold change vs veh, AHCTF1 / RFU, TFRC / Fold change vs veh, TFRC / RFU, ZDHHC17 / Fold change vs veh, ZDHHC17 / RFU, NOM1 / Fold change vs veh, NOM1 / RFU, ARL8B / Fold change vs veh, ARL8B / RFU, ZBTB11 / Fold change vs veh, ZBTB11 / RFU, TAMM41 / Fold change vs veh, TAMM41 / RFU, KIAA1704 /// LOC100996395 / Fold change vs veh, KIAA1704 /// LOC100996395 / RFU, ING1 / Fold change vs veh, ING1 / RFU, TRMT61B / Fold change vs veh, TRMT61B / RFU, FUBP3 / Fold change vs veh, FUBP3 / RFU, TP53 / Fold change vs veh, TP53 / RFU, TNKS2 / Fold change vs veh, TNKS2 / RFU, ZFP14 / Fold change vs veh, ZFP14 / RFU, ACTR2 / Fold change vs veh, ACTR2 / RFU, PPP3R1 / Fold change vs veh, PPP3R1 / RFU, PIK3R1 / Fold change vs veh, PIK3R1 / RFU, HNRNPA1 / Fold change vs veh, HNRNPA1 / RFU, RNF170 / Fold change vs veh, RNF170 / RFU, ZNF28 / Fold change vs veh, ZNF28 / RFU, RNGTT / Fold change vs veh, RNGTT / RFU, OGT / Fold change vs veh, OGT / RFU, BRD1 / Fold change vs veh, BRD1 / RFU, MARS / Fold change vs veh, MARS / RFU, ZNF655 / Fold change vs veh, ZNF655 / RFU, FAHD1 / Fold change vs veh, FAHD1 / RFU, BDP1 / Fold change vs veh, BDP1 / RFU, LRRCC1 / Fold change vs veh, LRRCC1 / RFU, ARID1A / Fold change vs veh, ARID1A / RFU, ZNF146 / Fold change vs veh, ZNF146 / RFU, ZNF330 / Fold change vs veh, ZNF330 / RFU, GPN3 / Fold change vs veh, GPN3 / RFU, C9orf123 / Fold change vs veh, C9orf123 / RFU, N4BP2L2 / Fold change vs veh, N4BP2L2 / RFU, ARFIP1 / Fold change vs veh, ARFIP1 / RFU, FAM179B / Fold change vs veh, FAM179B / RFU, BCL10 / Fold change vs veh, BCL10 / RFU, UHRF1BP1L / Fold change vs veh, UHRF1BP1L / RFU, BET1 / Fold change vs veh, BET1 / RFU, CNOT2 / Fold change vs veh, CNOT2 / RFU, ZNF268 / Fold change vs veh, ZNF268 / Fold change vs veh, ZNF507 / RFU, DGCR2 / Fold change vs veh, DGCR2 / RFU, WDSUB1 / Fold change vs veh, WDSUB1 / Fold change vs veh, HSP90B1 /// MIR3652 / RFU, ADSS / Fold change vs veh, ADSS / RFU, GK / Fold change vs veh, GK / RFU, ZNF148 / Fold change vs veh, ZNF148 / RFU, TAF9 / Fold change vs veh, TAF9 / RFU, SLC1A5 / Fold change vs veh, SLC1A5 / RFU, SLMO2 / Fold change vs veh, SLMO2 / RFU, ABCC4 / Fold change vs veh, ABCC4 / RFU, LOC101060439 /// RAP1B / Fold change vs veh, LOC101060439 /// RAP1B / RFU, RFX7 / Fold change vs veh, RFX7 / RFU, GTPBP10 / Fold change vs veh, GTPBP10 / RFU, CNEP1R1 / Fold change vs veh, CNEP1R1 / RFU, BIVM-ERCC5 /// ERCC5 / Fold change vs veh, BIVM-ERCC5 /// ERCC5 / RFU, ILF3 / Fold change vs veh, ILF3 / RFU 11762660_at / Fold change /veh 11762660_at / RFU VCAN (11757783_s_at) / Fold change /veh VCAN (11757783_s_at) / RFU DDX43 (11728927_at) / Fold change /veh DDX43 (11728927_at) / RFU KRT8 (11758188_x_at) / Fold change /veh KRT8 (11758188_x_at) / RFU NKD1 (11759106_at) / Fold change /veh NKD1 (11759106_at) / RFU SRD5A1 (11742802_a_at) / Fold change /veh SRD5A1 (11742802_a_at) / RFU TPSAB1 /// TPSB2 (11721975_s_at) / Fold change /veh TPSAB1 /// TPSB2 (11721975_s_at) / RFU GSTM3 (11746129_a_at) / Fold change /veh GSTM3 (11746129_a_at) / RFU IL23R (11737362_x_at) / Fold change /veh IL23R (11737362_x_at) / RFU TMEM51 (11727254_a_at) / Fold change /veh TMEM51 (11727254_a_at) / RFU PIWIL2 (11732686_x_at) / Fold change /veh PIWIL2 (11732686_x_at) / RFU ORM1 (11744905_x_at) / Fold change /veh ORM1 (11744905_x_at) / RFU CCDC152 (11743942_at) / Fold change /veh CCDC152 (11743942_at) / RFU ECM1 (11717891_a_at) / Fold change /veh ECM1 (11717891_a_at) / RFU IL23R (11748794_a_at) / Fold change /veh IL23R (11748794_a_at) / RFU TNFAIP8L3 (11732012_x_at) / Fold change /veh TNFAIP8L3 (11732012_x_at) / RFU MBOAT4 (11741988_at) / Fold change /veh MBOAT4 (11741988_at) / RFU 11764193_at / Fold change /veh 11764193_at / RFU TMEM53 (11763286_at) / Fold change /veh TMEM53 (11763286_at) / RFU MAGEB2 (11727129_at) / Fold change /veh MAGEB2 (11727129_at) / RFU TMEM200A (11744735_a_at) / Fold change /veh TMEM200A (11744735_a_at) / RFU CCDC152 (11751479_a_at) / Fold change /veh CCDC152 (11751479_a_at) / RFU FAM211A (11726209_a_at) / Fold change /veh FAM211A (11726209_a_at) / RFU RGS16 (11746705_a_at) / Fold change /veh RGS16 (11746705_a_at) / RFU VCAN (11755009_s_at) / Fold change /veh VCAN (11755009_s_at) / RFU RHOB (11743442_s_at) / Fold change /veh RHOB (11743442_s_at) / RFU RGS16 (11720943_a_at) / Fold change /veh RGS16 (11720943_a_at) / RFU RGS16 (11720944_at) / Fold change /veh RGS16 (11720944_at) / RFU, VPS4B / Fold change vs veh, VPS4B / RFU, CREB1 / Fold change vs veh, CREB1 / RFU, DNAJC13 / Fold change vs veh, DNAJC13 / RFU, GNAQ / Fold change vs veh, GNAQ / RFU, CDK5R1 / Fold change vs veh, CDK5R1 / RFU, ZRANB3 / Fold change vs veh, ZRANB3 / RFU, CUL4A / Fold change vs veh, CUL4A / RFU, CCNY / Fold change vs veh, CCNY / RFU, UFL1 / Fold change vs veh, UFL1 / RFU, COG3 / Fold change vs veh, COG3 / RFU, DIAPH2 / Fold change vs veh, DIAPH2 / RFU, SKA2 / Fold change vs veh, SKA2 / RFU, AFF3 / Fold change vs veh, AFF3 / RFU, LMF1 / Fold change vs veh, LMF1 / RFU, IPO11 / Fold change vs veh, IPO11 / RFU, DFFB / Fold change vs veh, DFFB / RFU, FOXP1 / Fold change vs veh, FOXP1 / RFU, CARD8 / Fold change vs veh, CARD8 / RFU, STRN3 / Fold change vs veh, STRN3 / RFU, ADK / Fold change vs veh, ADK / RFU, RASSF2 / Fold change vs veh, RASSF2 / RFU, WIPF1 / Fold change vs veh, WIPF1 / RFU, LARP1B / Fold change vs veh, LARP1B / RFU, RASA1 / Fold change vs veh, RASA1 / RFU, RB1 / Fold change vs veh, RB1 / RFU, PPFIA1 / Fold change vs veh, PPFIA1 / RFU, MAT2A / Fold change vs veh, MAT2A / RFU, CCT5 / Fold change vs veh, CCT5 / RFU, WDR92 / Fold change vs veh, WDR92 / RFU, CUX1 / Fold change vs veh, CUX1 / RFU, TTC7A / Fold change vs veh, TTC7A / RFU, TMEM135 / Fold change vs veh, TMEM135 / RFU, DEPTOR / Fold change vs veh, DEPTOR / RFU, CPM / Fold change vs veh, CPM / RFU, DNAJB6 / Fold change vs veh, DNAJB6 / RFU, CACNA2D3 / Fold change vs veh, CACNA2D3 / RFU, DTX4 / Fold change vs veh, DTX4 / RFU, TFCP2 / Fold change vs veh, TFCP2 / RFU, GMCL1 /// GMCL1P1 / Fold change vs veh, GMCL1 /// GMCL1P1 / RFU, AEBP2 / Fold change vs veh, AEBP2 / RFU, SNHG1 /// SNORD22 /// SNORD25 /// SNORD26 /// SNORD27 /// SNORD28 /// SNORD29 /// SNORD31 / Fold change vs veh, SNHG1 /// SNORD22 /// SNORD25 /// SNORD26 /// SNORD27 /// SNORD28 /// SNORD29 /// SNORD31 / Fold change (Aza/veh), C12orf56 (ProbeSet 11735607_a_at) / Fold change (ACY-1035/veh), C12orf56 (ProbeSet 11735607_a_at) / Fold change (Aza/veh), FGFR1OP (ProbeSet 11751329_s_at) / Fold change (ACY-1035/veh), FGFR1OP (ProbeSet 11751329_s_at) / Fold change (Aza/veh), VPS36 (ProbeSet 11739960_a_at) / Fold change (ACY-1035/veh), VPS36 (ProbeSet 11739960_a_at) / RFU SYPL1 (11715823_x_at) / Fold change /veh SYPL1 (11715823_x_at) / RFU IGFBP7 (11715501_s_at) / Fold change /veh IGFBP7 (11715501_s_at) / RFU REEP3 (11722064_at) / Fold change /veh REEP3 (11722064_at) / RFU IGLL1 (11728026_x_at) / Fold change /veh IGLL1 (11728026_x_at): dose or concentration left out as unconfirmed
# Conditions: MV-4-11 cells, 48 hours
compound,measurement,value
Nc1ncn([C@@H]2O[C@H](CO)[C@@H](O)[C@H]2O)c(=O)n1 [azacitidine],Fold change /veh PRRT2 (11749266_a_at),0.89
